Literature values in US20260115176A1, “ALLOSTERIC MODULATORS OF CANNABINOID RECEPTORS AND METHODS OF TREATING NEUROPATHIC PAIN” (The Board of Trustees of the Leland Stanford Junior …, priority 2020, published 2026).

Test system: rodent model of neuropathic pain
Settings: background statement

For `Cc1ccc2c(C(C[N+](=O)[O-])c3cccs3)c(-c3ccccc3)[nH]c2c1` (centres unmarked) [ZCZ-011], the “efficacy in rodent model of neuropathic pain” value is given as “could treat a rodent model of neuropathic pain” and the “psychoactive or hypothermic effects” value is given as “without psychoactive or hypothermic effects”.
